Assay results taken from patent US20240335447A1, “WEE1 INHIBITOR FOR CANCER” (Recurium IP Holdings, LLC, priority 2021, published 2024).

Experiments:
[1] = system: H23 cells; test: CellTiter-Glo (CTG) cell viability assay, H23 cells; type: cell-based; conditions: Homo sapiens, NCI-H23, 72 h, sotorasib 40 nM, Compound (A) 120 nM, single agent or combination of both
Procedure: (§1) 20,000 H23 cells were incubated in a 96 well plate as a triplicate with 40 nM of sotorasib or 120 nM of Compound (A) as a single agent or the combination of both for 72 h (FIG. 2). 20,000 MiaPaca-2 cells were incubated in a 96 well plate as a triplicate with 350 nM of sotorasib or 1000 nM of Compound (A) as a single agent or the combination of both for 72 h (FIG. 3). 20,000 H358 cells were incubated in a 96 well plate as a triplicate with 10 nM of sotorasib or 300 nM of Compound (A) as a single agent or the combination of both for 72 h (FIG. 4). 20,000 SW837 cells were incubated in a 96 well plate as a triplicate with 12 nM of sotorasib or 1000 nM of Compound (A) as a single agent or the combination of both for 72 h (FIG. 5). For each cell line, the cell viability was assessed using a CellTiter-Glo® (CTG) assay.

[2] = system: H358 cells; test: CellTiter-Glo (CTG) cell viability assay, H358 cells; type: cell-based; conditions: Homo sapiens, NCI-H358, 72 h, sotorasib 10 nM, Compound (A) 300 nM, single agent or combination of both
Procedure: as §1

[3] = system: LoVo tumor cells; test: colorectal cancer LoVo xenograft model (KRAS mutant); type: in vivo, BALB/c nude mice
Procedure: The antitumor activity of Compound (A) was assessed using the colorectal cancer LoVo xenograft model (KRAS mutant) with BALB/c nude mice. Each mouse was inoculated on the right flank subcutaneously with 5×10^6/100 μL LoVo tumor cells for the tumor development. When the mean tumor size reached 207 mm^3, animals were randomized into 4 groups (10 animals/group), and the treatments were initiated according to Table 4.
(§2) Study endpoints included daily body weight, clinical observations and tumor volume.

[4] = system: SW1116 tumor cells; test: colorectal cancer SW1116 xenograft model (TP53 mutant; KRAS mutant); type: in vivo
Procedure: The antitumor activity of Compound (A) was assessed using the colorectal cancer SW1116 xenograft model (TP53 mutant; KRAS mutant) with NOD/SCID nude mice. Each mouse was inoculated on the right flank subcutaneously with 1×10^7 (+High Concentration Matrigel)/200 μL SW1116 tumor cells for the tumor development. When the mean tumor size reached 229 mm^3, animals were randomized into 4 groups (10 animals/group), and the treatments were initiated according to Table 6.
as §2

[5] = system: MiaPaca-2 cells; test: CellTiter-Glo (CTG) cell viability assay, MiaPaca-2 cells; type: cell-based; conditions: Homo sapiens, MIA PaCa-2, 72 h, sotorasib 350 nM, Compound (A) 1000 nM, single agent or combination of both
Procedure: as §1

[6] = system: SW1463 cells; test: SW1463 subcutaneous xenograft, tumor growth; type: in vivo, Mice; conditions: Compound (A) 80 mg/kg p.o. qd x21, sotorasib 30 mg/kg p.o.
Procedure: Mice were inoculated with SW1463 cells subcutaneously on the right flank with the single cell suspension of 95% viable tumor cells (1×10^7) in 100 μL L-15 Matrigel mixture (1:1 ratio) without serum for the tumor development. The treatment was started when the mean tumor size reached approximately 200 mm^3 (with individual tumor range between 180-220 mm^3). Animals were randomly distributed into treatment groups of 8 animals each and dosed with vehicle (top line indicated with circles) and indicated compounds at indicated dosage and frequency shown in FIG. 11 and Table 10. In FIG. 11, single agent activity was shown with Compound (A) and sotorasib at the indicated doses, and the bottom line is Compound (A) 80 mg/kg p.o. qd×21+sotorasib 30 mg/kg p.o. pd×21.
Tumor volumes were evaluated twice per week to calculate tumor volume over time, and mice were weighed twice per week as a surrogate for signs of toxicity. Tumor growth inhibition (TGI) was calculated using the following equation TGI=(1−(Td−T0)/(Cd−C0))×100%. Td and Cd are the mean tumor volumes of the treated and control animals, and T0 and C0 are the mean tumor volumes of the treated and control animals at the start of the experiment. The tumor regression was defined as (1−(Td/T0))×100% tumor volume (TV) decrease (Td terminal TV divided by T0 initial TV). […]

[7] = system: SW837 cells; test: SW837 subcutaneous xenograft, tumor growth; type: in vivo, Mice; conditions: Compound (A) 60 mg/kg p.o. qd x18, sotorasib 30 mg/kg p.o.
Procedure: Mice were inoculated with SW837 cells subcutaneously on the right flank with the single cell suspension of 95% viable tumor cells (1×10^7) in 100 μL L-15 Matrigel mixture (1:1 ratio) without serum for the tumor development. The treatment was started when the mean tumor size reached approximately 200 mm^3 (with individual tumor range between 180-220 mm^3). Animals were randomly distributed into treatment groups of 8 animals each and dosed with vehicle (top line indicated with circles) and indicated compounds at indicated dosage and frequency shown in FIG. 6 and Table 3. In FIG. 6, single agent activity was shown with Compound (A) and sotorasib at the indicated doses. In addition, the bottom line is Compound (A) 60 mg/kg p.o. qd×18+sotorasib 30 mg/kg p.o. pd×18. […] Tumor volumes were evaluated twice per week to calculate tumor volume over time, and mice were weighed twice per week as a surrogate for signs of toxicity. Tumor growth inhibition (TGI) was calculated using the following equation TGI=(1−(Td−T0)/(Cd−C0))×100%. Td and Cd are the mean tumor volumes of the treated and control animals, and T0 and C0 are the mean tumor volumes of the treated and control animals at the start of the experiment. The tumor regression was defined as (1−(Td/T0))×100% tumor volume (TV) decrease (Td terminal TV divided by T0 initial TV). […]

[8] = system: MiaPaca-2 cells; test: MiaPaca-2 subcutaneous xenograft, tumor growth; type: in vivo, Mice; conditions: MiaPaca-2 xenograft, Compound (A) 80 mg/kg p.o. qd x21, sotorasib 10 mg/kg or MRTX849 10 mg/kg p.o.
Procedure: Tumor volumes were evaluated twice per week to calculate tumor volume over time, and mice were weighed twice per week as a surrogate for signs of toxicity. Tumor growth inhibition (TGI) was calculated using the following equation TGI=(1−(Td−T0)/(Cd−C0))×100%. Td and Cd are the mean tumor volumes of the treated and control animals, and T0 and C0 are the mean tumor volumes of the treated and control animals at the start of the experiment.

[9] = system: SW837 cells; test: CellTiter-Glo (CTG) cell viability assay, SW837 cells; type: cell-based; conditions: Homo sapiens, 72 h, sotorasib 12 nM, Compound (A) 1000 nM, single agent or combination of both
Procedure: as §1

SMILES | inhibition at 0.12 µM [1] [%] | inhibition at 0.3 µM [2] [%] | TGI (%) ([3]; 40 mg/kg/day p.o. qd x 28) | TGI (%) ([3]; 60 mg/kg/day p.o. qd x 28) | TGI (%) ([3]; 80 mg/kg/day p.o. qd x 28) | mean body weights ([3]; 40, 60, 80 mg/kg/day) | clinical observations ([3]; any dose group (40, 60, 80 mg/kg/day)) | TGI (%) ([4]; 40 mg/kg/day p.o. qd x 28) | TGI (%) ([4]; 60 mg/kg/day p.o. qd x 28) | TGI (%) ([4]; 80 mg/kg/day p.o. qd x 28) | tolerability ([4]; 40, 60, 80 mg/kg/day) | inhibition at 1 µM [5] [%] | TGI % (DAY 21) [6] [%] | TGI % (DAY 18) [7] [%] | TGI % (DAY 21) [8] [%] | inhibition at 1 µM [9] [%] | inhibition at 0.04 µM [1] [%] | inhibition at 0.01 µM [2] [%] | inhibition at 0.35 µM [5] [%] | inhibition at 0.012 µM [9] [%]
C=CCn1c(=O)c2cnc(Nc3ccc(N4CCN(C)CC4)cc3)nc2n1-c1ccc2c(n1)[C@@](O)(CC)CC2 [Compound (A)] | 16.5 | 31.5 | 21.4 | 32.1 | 70.3 | no significant impact of treatments on mean body weights | no adverse clinical observations | 49.0 | 75.1 | 98.5 | generally well tolerated for the majority of study animals | 47 | 57 | 72 | 50 | 28.8 | – | – | – | –
C=CC(=O)N1CCN(c2nc(=O)n(-c3c(C)ccnc3C(C)C)c3nc(-c4c(O)cccc4F)c(F)cc23)[C@@H](C)C1 [sotorasib, reference compound] | – | – | – | – | – | – | – | – | – | – | – | – | 73 | 80 | 81 | – | 27.8 | 24 | 39 | 20.7
